Data: patent US9920075B2, “Triazolopyridine and triazolopyrimidine inhibitors of myeloperoxidase” (BRISTOL-MYERS SQUIBB COMPANY, priority 2014, dated 2018)
Like-named read-outs stand apart in the source and are kept apart here.

What was measured:
Type in all cases: biochemical
myeloperoxidase (MPO) [1] = biological target: T1, myeloperoxidase (MPO) (Homo sapiens, UniProt P05164); experiment: MPO peroxidation assay (Amplex Red assay); conditions: MPO peroxidation, 100 mM KPi pH 7.4, ten minute preincubation
T1 sequence (P05164 49-745): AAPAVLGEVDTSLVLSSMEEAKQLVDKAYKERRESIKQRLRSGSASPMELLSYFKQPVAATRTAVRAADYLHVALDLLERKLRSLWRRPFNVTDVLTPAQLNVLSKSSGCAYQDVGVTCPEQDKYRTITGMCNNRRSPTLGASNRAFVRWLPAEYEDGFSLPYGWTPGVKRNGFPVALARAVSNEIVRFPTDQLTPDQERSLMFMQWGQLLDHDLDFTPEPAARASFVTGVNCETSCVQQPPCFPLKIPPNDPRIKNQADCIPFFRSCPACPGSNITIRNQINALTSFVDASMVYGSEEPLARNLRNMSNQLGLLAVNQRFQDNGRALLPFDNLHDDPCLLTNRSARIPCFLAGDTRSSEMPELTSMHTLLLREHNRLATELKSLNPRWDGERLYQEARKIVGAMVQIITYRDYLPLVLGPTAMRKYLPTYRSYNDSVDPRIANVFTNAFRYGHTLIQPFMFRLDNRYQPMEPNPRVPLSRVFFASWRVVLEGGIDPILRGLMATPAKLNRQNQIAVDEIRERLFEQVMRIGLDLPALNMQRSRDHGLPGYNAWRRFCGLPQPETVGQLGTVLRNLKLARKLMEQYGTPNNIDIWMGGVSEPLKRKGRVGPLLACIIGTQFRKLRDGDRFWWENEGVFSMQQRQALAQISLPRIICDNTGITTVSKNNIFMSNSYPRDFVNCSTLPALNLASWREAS
How it was run: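 Enzyme and compound preincubated 10 min at room temperature in 100 mM KPi, pH 7.4. Amplex Red (200 μM) plus H2O2 (10 mM) mixture then added, peroxidase oxidation to fluorescent resorufin followed kinetically. IC50 from slope over 180–540 s, converted to % inhibition and fitted to a four-parameter Hill equation.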

myeloperoxidase (MPO) [2] = biological target: T1, myeloperoxidase (MPO); experiment: MPO chlorination assay (APF assay)
Procedure: [formula] where A=minimal Y value (activity level of inhibited sample), B=maximal Y value (activity level of uninhibited sample), C=Log IC50, D=Hill Slope, x=concentration of inhibitor. MPO Chlorination Assay (APF Assay)
MPO chlorination activity was measured in 100 mM KPi (pH 7.4) by utilizing the non-fluorescent reagent Aminophenyl fluorescein (APF, Invitrogen Cat. #A36003). APF is cleaved by (—OCl) to yield the fluorescent compound fluorescein. […] Enzyme, inhibitor, and chloride were preincubated for ten minutes at room temperature.
After the ten minute preincubation, 25 μL of an APF mixture containing […], 120 mM NaCl and 10 μM H2O2 was added to the plate using the internal dispensing system of a Hammatsu FDSS 6000. […] IC50 values for inhibitors were calculated by taking the slope of the linear portion of the kinetic measurement (20 seconds to ˜80-120 secs).
IC50 values were calculated by determining the slope of the linear portion of the kinetic trace (180-540 secs), and using that calculated slope to determine % inhibition occurring at each concentration of inhibitor using the following equation:
(§1) [formula] where A=minimal Y value (activity level of inhibited sample), B=maximal Y value (activity level of uninhibited sample), C=Log IC50, D=Hill Slope, x=concentration of inhibitor. EPX Bromination Assay

EPX = biological target: T2, EPX (Homo sapiens, UniProt P11678); experiment: EPX bromination assay
T2 construct: purchased Lee Biosolutions 342-60
Procedure: as §1
EPX bromination activity was measured in 100 mM KPi (pH 7.4) by monitoring the H2O2 catalyzed formation of 3-bromo tyrosine from tyrosine and potassium bromide. […] Enzyme and compound were preincubated for ten minutes at room temperature.
The reaction was allowed to proceed for 15 minutes, at which time it was quenched with 10 μL of 20% TCA. The final concentrations of all components were 0.3 μM EPX, 100 μM tyrosine, […], 5 μM H2O2, 0.1% DMSO, 2.0% TCA.
[formula] where A=minimal Y value (activity level of inhibited sample), B=maximal Y value (activity level of uninhibited sample), C=Log IC50, D=Hill Slope, x=concentration of inhibitor.
The column was maintained at 60° C. Samples were eluted using a gradient of 0%-100% B over 2.5 minutes, followed by equilibration with 100% A for 1 minute where A consisted of 0.1% TFA and B consisted of 90% MeOH/0.1% TFA at a flow rate of 0.6 mL/min.

[3] = read-out: Amplex Red Assay IC50 value
[4] = MPO chlorination, 100 mM KPi pH 7.4, ten minute preincubation, read-out: APF Assay IC50 value
[5] = EPX bromination, 100 mM KPi pH 7.4, ten minute preincubation, read-out: EPX IC50

T2 sequence (P11678 251-715 limits assumed): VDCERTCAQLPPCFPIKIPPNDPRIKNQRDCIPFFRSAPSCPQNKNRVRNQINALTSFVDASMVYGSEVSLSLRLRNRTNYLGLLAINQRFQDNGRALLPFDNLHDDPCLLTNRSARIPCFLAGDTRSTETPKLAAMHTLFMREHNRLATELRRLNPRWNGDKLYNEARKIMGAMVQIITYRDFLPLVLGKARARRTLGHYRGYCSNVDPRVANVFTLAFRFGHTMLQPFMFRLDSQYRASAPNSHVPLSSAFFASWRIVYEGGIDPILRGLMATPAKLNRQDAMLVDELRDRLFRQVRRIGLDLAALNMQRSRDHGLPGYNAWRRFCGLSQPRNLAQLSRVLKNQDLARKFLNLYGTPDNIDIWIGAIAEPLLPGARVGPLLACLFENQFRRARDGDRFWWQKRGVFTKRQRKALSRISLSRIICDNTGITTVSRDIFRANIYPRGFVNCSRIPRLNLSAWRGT
T2 sequence (P11678 140-250 limits assumed): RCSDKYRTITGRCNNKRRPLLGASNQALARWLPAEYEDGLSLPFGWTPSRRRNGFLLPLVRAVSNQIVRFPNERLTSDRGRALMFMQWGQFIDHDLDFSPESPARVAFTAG

Structure (SMILES)	IC50 (myeloperoxidase (MPO) [1]; [3]) [nM]	IC50 (myeloperoxidase (MPO) [2]; [4]) [nM]	IC50 (EPX; [5]) [nM]	IC50 (myeloperoxidase (MPO) [1]; Amplex Red Assay IC50 value) [nM]	IC50 (myeloperoxidase (MPO) [2]) [nM]	IC50 (EPX) [nM]
COc1ccc(-n2nc(C)c(COc3cc(N)nc4[nH]nnc34)n2)cc1 [Example 11, 7-((2-(4-Methoxyphenyl)-5-methyl-2H-1,2,3-triazol-4-yl)methoxy)-3H-[1,2,3]triazolo[4,5-b]pyridin-5-amine]	20	170	40			
Cn1ncc2c(COc3cc(N)nc4[nH]nnc34)cccc21 [Example 15, 7-((1-Methyl-1H-indazol-4-yl)methoxy)-3H-[1,2,3]triazolo[4,5-b]pyridin-5-amine]	20	60	40			
Nc1cc(OCc2nn(-c3ccccc3)nc2C(F)F)c2nn[nH]c2n1 [Example 55, 7-((5-(Difluoromethyl)-2-phenyl-2H-1,2,3-triazol-4-yl)methoxy)-3H-[1,2,3]triazolo[4,5-b]pyridin-5-amine]				10	80	10
